From patent publication US20250179051A1, “PYRIMIDINLY-OXY-QUINOLINE BASED HERBICIDAL COMPOUNDS” (SYNGENTA CROP PROTECTION AG, priority 2022, published 2025) come the findings set out here.

Assay type in all cases: in vivo
Holding throughout (conditions): 250 g/ha, evaluated after 13 days, five-point scale

Test [1] relates to Amaranthus retoflexus (AMARE). In words: Post-emergence herbicide glasshouse test. The method in brief: (§1)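 Pots were sprayed one day after sowing (pre-emergence) or after 8 days' growth (post-emergence) at 250 g/ha unless otherwise stated, in acetone/water 50:50 with 0.5% Tween 20. Plants were grown at 24/16 °C with 14 h light and 65% humidity. Damage was scored at 13 days on a five-point scale (5=81-100% to 1=0-20%).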

The subject of test [2] is Echinochloa crus-galli (ECHCG). In words: Post-emergence herbicide glasshouse test. The method in brief: as §1
For test [3], the system named is Ipomoea hederacea (IPOHE). In words: Post-emergence herbicide glasshouse test. The essentials: as §1
For test [4], the system named is Setaria faberi (SETFA). The test is described as follows: Post-emergence herbicide glasshouse test. The essentials:
as §1

For test [5], the system named is Amaranthus palmeri (AMAPA). In words: Post-emergence herbicide glasshouse test. The essentials: as §1
In test [6] the test system is Amaranthus retoflexus (AMARE). In words: Pre-emergence herbicide glasshouse test. The essentials:
as §1

Test [7] concerns Echinochloa crus-galli (ECHCG). In words: Pre-emergence herbicide glasshouse test. The method in brief:
as §1

Test [8] relates to Ipomoea hederacea (IPOHE). The test is described as follows: Pre-emergence herbicide glasshouse test. The essentials: as §1
Test [9] has as its system Setaria faberi (SETFA). In words: Pre-emergence herbicide glasshouse test. The method in brief: as §1
For test [10], the system named is Amaranthus palmeri (AMAPA). The test is described as follows: Pre-emergence herbicide glasshouse test. The essentials:
as §1

With `CON=CCc1nc(C(F)(F)F)nc2cccc(Oc3ncc(Cl)cn3)c12` [Compound 1.007], the “percentage damage caused to the plant, AMARE” value in [1] was 2 (2=21-40%); in [6], 1 (1=0-20%). In addition, the “percentage damage caused to the plant, ECHCG” value in test [2] and in test [7] was 1 (1=0-20%) throughout. Moreover, the “percentage damage caused to the plant, IPOHE” value in [3] and in test [8] was 1 (1=0-20%) each time. Moreover, the “percentage damage caused to the plant, SETFA” value in [4] and in [9] was 1 (1=0-20%) throughout. The figures for the “percentage damage caused to the plant, AMAPA” value in [5] and in test [10] were 2 (2=21-40%) and 1 (1=0-20%), respectively.

Consider `O=C(c1ccc(F)cn1)c1nc(C(F)(F)F)nc2cccc(Oc3ncc(Cl)cn3)c12` [Compound 1.027], for which the “percentage damage caused to the plant, AMARE” value in test [1] and in test [6] was 2 (2=21-40%) each time. The “percentage damage caused to the plant, ECHCG” value in test [2] and in test [7] was 1 (1=0-20%) each time. Also, the “percentage damage caused to the plant, IPOHE” value in test [3] and in test [8] was 1 (1=0-20%) throughout. In addition, the “percentage damage caused to the plant, SETFA” value in test [4] and in test [9] was 1 (1=0-20%) in each case. The “percentage damage caused to the plant, AMAPA” value in [5] was 1 (1=0-20%); in [10], 2 (2=21-40%).

Regarding `CC(Br)c1nc(C(F)(F)F)nc2cccc(Oc3ncc(Cl)cn3)c12` (centres unmarked) [Compound 1.001, 4-(1-bromoethyl)-5-(5-chloropyrimidin-2-yl)oxy-2-(trifluoromethyl)quinazoline], the “percentage damage caused to the plant, AMARE” value in test [1] was 3 (3=41-60%); in test [6], 2 (2=21-40%). The “percentage damage caused to the plant, ECHCG” value in [2] and in test [7] was 1 (1=0-20%) throughout. Moreover, the “percentage damage caused to the plant, IPOHE” value is on record as 3 (3=41-60%) in test [3] and 1 (1=0-20%) in test [8]. Further, the results for the “percentage damage caused to the plant, SETFA” value in test [4] and in test [9] were 1 (1=0-20%) and 2 (2=21-40%), respectively. The “percentage damage caused to the plant, AMAPA” value in [5] and in test [10] was 3 (3=41-60%) each time.

As to `FC(F)(F)c1nc(CCC2CC2)c2c(Oc3ncc(Cl)cn3)cccc2n1` [Compound 1.032], the “percentage damage caused to the plant, AMARE” value in test [1] and in test [6] was 5 (5=81-100%) in each case. In addition, the “percentage damage caused to the plant, ECHCG” value in [2] and in test [7] was 5 (5=81-100%) in each case. In addition, the figures for the “percentage damage caused to the plant, IPOHE” value in test [3] and in test [8] were 4 (4=61-80%) and 1 (1=0-20%), respectively. The “percentage damage caused to the plant, SETFA” value in test [4] and in test [9] was 5 (5=81-100%) throughout. In addition, the “percentage damage caused to the plant, AMAPA” value in test [5] was 4 (4=61-80%); in test [10], 5 (5=81-100%).

As for `O=CCCc1nc(C(F)(F)F)nc2cccc(Oc3ncc(Cl)cn3)c12` [Compound 1.038, 3-[5-(5-chloropyrimidin-2-yl)oxy-2-(trifluoromethyl)quinazolin-4-yl]propanal], the “percentage damage caused to the plant, AMARE” value in test [1] is reported as 4 (4=61-80%); in test [6], 2 (2=21-40%). The “percentage damage caused to the plant, ECHCG” value in [2] and in test [7] was 1 (1=0-20%) in each case. Moreover, the “percentage damage caused to the plant, IPOHE” value is listed as 3 (3=41-60%) in test [3] and 1 (1=0-20%) in [8]. Also, the “percentage damage caused to the plant, SETFA” value in test [4] and in test [9] was 1 (1=0-20%) each time. The “percentage damage caused to the plant, AMAPA” value in test [5] is 3 (3=41-60%); in test [10], 1 (1=0-20%).

For `CCON=CCc1nc(C(F)(F)F)nc2cccc(Oc3ncc(Cl)cn3)c12` [Compound 1.006], the “percentage damage caused to the plant, AMARE” value was 3 (3=41-60%) in test [1] and 1 (1=0-20%) in [6]. Further, the “percentage damage caused to the plant, ECHCG” value in test [2] and in test [7] was 1 (1=0-20%) throughout. The “percentage damage caused to the plant, IPOHE” value in test [3] and in test [8] was 1 (1=0-20%) in each case. Besides, the “percentage damage caused to the plant, SETFA” value in test [4] and in [9] was 1 (1=0-20%) each time. The “percentage damage caused to the plant, AMAPA” value was 2 (2=21-40%) in [5] and 3 (3=41-60%) in test [10].

Regarding `CC(=O)N1CCC(CCc2nc(C(F)(F)F)nc3cccc(Oc4ncc(Cl)cn4)c23)CC1` [Compound 1.034], the “percentage damage caused to the plant, AMARE” value is 5 (5=81-100%) in [1] and 2 (2=21-40%) in [6]. For the same molecule, the “percentage damage caused to the plant, ECHCG” value in test [2] was 4 (4=61-80%); in test [7] it was 2 (2=21-40%). In addition, the figures for the “percentage damage caused to the plant, IPOHE” value in test [3] and in test [8] were 2 (2=21-40%) and 1 (1=0-20%), respectively. Besides, the “percentage damage caused to the plant, SETFA” value in test [4] is 5 (5=81-100%); in test [9] it was 4 (4=61-80%). The “percentage damage caused to the plant, AMAPA” value in test [5] is 4 (4=61-80%); in test [10], 3 (3=41-60%).

For the molecule `FC(F)(F)c1nc(CCC2CCOC2)c2c(Oc3ncc(Cl)cn3)cccc2n1` (centres unmarked) [Compound 1.031], the “percentage damage caused to the plant, AMARE” value in test [1] and in test [6] was 5 (5=81-100%) each time. The “percentage damage caused to the plant, ECHCG” value in test [2] and in test [7] was 5 (5=81-100%) in each case. For the same molecule, the “percentage damage caused to the plant, IPOHE” value in test [3] and in test [8] was 5 (5=81-100%) in each case. In addition, the “percentage damage caused to the plant, SETFA” value in [4] and in test [9] was 5 (5=81-100%) throughout. Also, the “percentage damage caused to the plant, AMAPA” value was 4 (4=61-80%) in test [5] and 5 (5=81-100%) in [10].

Turning to `FC(F)(F)c1nc(CCC=NOCC2CC2)c2c(Oc3ncc(Cl)cn3)cccc2n1` [Compound 1.005], the results for the “percentage damage caused to the plant, AMARE” value in [1] and in test [6] were 4 (4=61-80%) and 3 (3=41-60%), respectively. For the same molecule, the “percentage damage caused to the plant, ECHCG” value in [2] and in [7] was 4 (4=61-80%) throughout. Besides, the “percentage damage caused to the plant, IPOHE” value in test [3] is on record as 2 (2=21-40%); in test [8], 1 (1=0-20%). Besides, the “percentage damage caused to the plant, SETFA” value in test [4] is 4 (4=61-80%); in [9], 5 (5=81-100%). Further, the “percentage damage caused to the plant, AMAPA” value in test [5] and in test [10] was 5 (5=81-100%) each time.

Consider `CON1CCC(CCc2nc(C(F)(F)F)nc3cccc(Oc4ncc(Cl)cn4)c23)CC1` [Compound 1.023, 5-(5-chloropyrimidin-2-yl)oxy-4-[2-(1-methoxy-4-piperidyl)ethyl]-2-(trifluoromethyl)quinazoline], for which the “percentage damage caused to the plant, AMARE” value in [1] and in test [6] was 4 (4=61-80%) throughout. For the same molecule, the “percentage damage caused to the plant, ECHCG” value in test [2] was 1 (1=0-20%); in [7], 2 (2=21-40%). In addition, the “percentage damage caused to the plant, IPOHE” value in test [3] is 3 (3=41-60%); in test [8], 1 (1=0-20%). Further, the “percentage damage caused to the plant, SETFA” value in [4] and in test [9] was 1 (1=0-20%) each time. Besides, the “percentage damage caused to the plant, AMAPA” value in [5] and in test [10] was 4 (4=61-80%) throughout.

Take `Cc1cnc(Oc2cccc3nc(C(F)(F)F)nc(CCC4CC4)c23)nc1` [Compound 1.015, 4-(2-cyclopropylethyl)-5-(5-methylpyrimidin-2-yl)oxy-2-(trifluoromethyl)quinazoline]: the “percentage damage caused to the plant, AMARE” value in [1] is reported as 4 (4=61-80%); in test [6] it was 5 (5=81-100%). Besides, the “percentage damage caused to the plant, ECHCG” value in test [2] was 4 (4=61-80%); in test [7] it was 5 (5=81-100%). In addition, the “percentage damage caused to the plant, IPOHE” value in test [3] and in [8] was 3 (3=41-60%) in each case. The “percentage damage caused to the plant, SETFA” value in test [4] and in test [9] was 5 (5=81-100%) in each case. Besides, the “percentage damage caused to the plant, AMAPA” value in [5] is reported as 2 (2=21-40%); in test [10], 5 (5=81-100%).
